The results in this text go back to article PMC13086438 (PLOS Neglected Tropical Diseases, 2026).

pKd: −log10 of the molar value.

This assay addresses T1, recombinant human sphingosine kinase 1 (rhSphK1) (Homo sapiens, UniProt Q9NYA1).
T1 construct: gene SPHK1; full-length (1155 bp CDS), 6×His tag, ~50 kDa, E. coli
The assay can be described thus: Microscale thermophoresis (SphK2 inhibitor used as control). The assay is classed as binding. A general note: In MST a laser heats a spot of the sample, and binding alters the fluorescence response.

T1 sequence (Q9NYA1 whole entry): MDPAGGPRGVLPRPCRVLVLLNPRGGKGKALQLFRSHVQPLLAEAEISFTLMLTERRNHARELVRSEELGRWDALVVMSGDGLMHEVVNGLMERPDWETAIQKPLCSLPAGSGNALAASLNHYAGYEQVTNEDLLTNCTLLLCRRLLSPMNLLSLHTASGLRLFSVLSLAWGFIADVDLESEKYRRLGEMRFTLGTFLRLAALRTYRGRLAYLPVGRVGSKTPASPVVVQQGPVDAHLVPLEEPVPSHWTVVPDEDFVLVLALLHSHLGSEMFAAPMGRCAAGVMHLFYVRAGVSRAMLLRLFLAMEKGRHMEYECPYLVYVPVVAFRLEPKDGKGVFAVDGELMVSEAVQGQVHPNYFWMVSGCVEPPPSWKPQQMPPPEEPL

For orientation: pKd means the negative decadic logarithm of the Kd, by convention in mol/L. For `O=C(NCc1ccncc1)C12CC3CC(C1)CC(c1ccc(Cl)cc1)(C3)C2` [ABC294640], the negative-log Kd (pKd) was 4.15.
